The values below come from patent US7297704B2, “Cycloalkyfused indole, benzothiophene, benzofuran and idene derivatives” (Wyeth, priority 2005, dated 2007).

For series [1], the target named is T1, Human 5-HT1A Receptor (Homo sapiens, UniProt P08908).
T1 construct: expressed in transfected cells; host or cells: CHO cells
T1 sequence (P08908 1-422): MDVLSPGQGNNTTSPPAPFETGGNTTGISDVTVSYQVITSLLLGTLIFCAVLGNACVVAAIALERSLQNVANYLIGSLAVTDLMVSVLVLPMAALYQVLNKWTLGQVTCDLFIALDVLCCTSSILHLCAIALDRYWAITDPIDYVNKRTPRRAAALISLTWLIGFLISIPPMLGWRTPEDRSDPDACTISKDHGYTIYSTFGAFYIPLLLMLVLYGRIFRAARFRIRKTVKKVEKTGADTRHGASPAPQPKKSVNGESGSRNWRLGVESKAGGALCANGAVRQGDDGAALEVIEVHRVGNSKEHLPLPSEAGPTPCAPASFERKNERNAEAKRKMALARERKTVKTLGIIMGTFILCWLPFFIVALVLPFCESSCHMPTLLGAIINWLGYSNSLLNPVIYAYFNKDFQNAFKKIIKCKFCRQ
As to the kind of experiment: 8-OH-DPAT binding, human 5-HT1A receptor cell line. The conditions noted are these: stably transfected CHO cells, 8-OH-DPAT ligand 1.5 nM; read-out: h5-HT1A Affinity, Ki. Put shortly: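 Membranes from CHO cells stably expressing human 5-HT1A, incubated 30 min at room temperature in 50 mM Tris pH 7.5 with 1.5 nM radioligand (8-OH-DPAT). Non-specific binding defined with […]; filtration on PEI-soaked GF/B filters. Single-point inhibition at […], then Ki for actives.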

For the next series, the target named is T2, serotonin transporter (Rattus norvegicus, UniProt P31652).
T2 construct: frontal cortical membranes prepared from male S.D. rats; from tissue; host or cells: rat frontal cortex membranes (male Sprague-Dawley)
Briefly: 3H-paroxetine binding to the serotonin transporter, rat frontal cortical membranes. The settings on record: values printed without parentheses, 3H-paroxetine 0.1 nM, read-out: rb-5-HH-T, Ki. The procedure, abridged: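 Male Sprague-Dawley rat frontal cortical membranes incubated with 0.1 nM ³H-paroxetine for 60 min at 25 °C, test compound at one to eight concentrations; 10 μM fluoxetine defined specific binding. Filtration separated bound ligand, counted by scintillation. IC50 from nonlinear regression, converted to Ki by Cheng–Prusoff.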

The target in the next series is h-5-HT-T (Homo sapiens, UniProt P31645). Briefly: h-5-HT-T IC50 (Table 1, no method described).
Series [2] deals with T1, Human 5-HT1A Receptor. As to the kind of experiment: cAMP RIA in human 5-HT1A receptor cell line. In kind it is cell-based. The settings on record: CHO cells; for EC50: superscript a, read-out: c-AMP, (EC50)^a; for EC50 / Emax: forskolin stimulated cAMP; for Emax: superscript c, read-out: c-AMP, (Emax)^c. Put shortly: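 Stably transfected CHO cells preincubated in Krebs with 500 uM IBMX, then given forskolin (1 uM final) and test compound (0.1 and 1 uM initial screen) for 10 min at 37° C; cAMP measured by RIA as % inhibition. Antagonist mode: 6 concentrations preincubated 20 min before agonist plus forskolin; IC50 for reversal.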

The target in series [3] is T3, cloned human 5-HT1A receptors (Homo sapiens, UniProt P08908).
T3 construct: expressed in transfected cells
T3 sequence (P08908 1-422): T1 sequence (P08908 1-422)
As to the kind of experiment: 35S-GTPγS binding assay. In kind it is biochemical. The conditions noted are these: for IC50: superscript b, reversal of 8-OH-DPAT effect; for Imax (maximum inhibitory effect): superscript d. An excerpt: The ^35S-GTPγS binding assay similar to that used by Lazareno and Birdsall (Br. J. Pharmacol., 1993, 109: 1120) was used to determine the test compound's ability to affect the binding of ^35S-GTPγS to membranes containing cloned human 5-HT1A receptors. Agonists produce an increase in binding whereas antagonists produce no increase but rather reverse the effects of the standard agonist 8-OH-DPAT. The test compound's maximum stimulatory effect is represented as the Emax, while its potency is defined by the EC50. The test compound's maximum inhibitory effect is represented as the Imax, while its potency is defined by the IC50. […] was used to determine maximum agonist or antagonist response.
(GTPγS is a poorly hydrolysed GTP analogue; its binding reports G protein activation.)

SMILES strings stand for the structures. Structures can show the parent of a compound that is named as a salt.

T2 sequence (P31652 whole entry): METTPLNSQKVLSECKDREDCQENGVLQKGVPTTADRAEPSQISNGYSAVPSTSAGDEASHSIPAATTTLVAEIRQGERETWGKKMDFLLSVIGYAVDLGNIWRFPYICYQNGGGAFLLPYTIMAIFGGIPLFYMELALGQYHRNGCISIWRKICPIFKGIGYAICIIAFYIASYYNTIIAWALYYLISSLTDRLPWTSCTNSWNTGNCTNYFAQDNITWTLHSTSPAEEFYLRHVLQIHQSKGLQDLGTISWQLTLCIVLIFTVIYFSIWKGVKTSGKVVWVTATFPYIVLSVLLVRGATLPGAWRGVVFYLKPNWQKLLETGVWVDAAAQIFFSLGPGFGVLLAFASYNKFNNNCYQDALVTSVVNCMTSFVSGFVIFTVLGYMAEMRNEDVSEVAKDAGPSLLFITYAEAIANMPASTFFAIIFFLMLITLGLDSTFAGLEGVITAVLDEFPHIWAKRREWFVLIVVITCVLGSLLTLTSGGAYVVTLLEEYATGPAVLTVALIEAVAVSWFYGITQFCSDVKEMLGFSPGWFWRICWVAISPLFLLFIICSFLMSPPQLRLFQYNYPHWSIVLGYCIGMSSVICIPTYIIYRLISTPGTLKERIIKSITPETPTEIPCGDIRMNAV
h-5-HT-T, sequence (P31645 whole entry): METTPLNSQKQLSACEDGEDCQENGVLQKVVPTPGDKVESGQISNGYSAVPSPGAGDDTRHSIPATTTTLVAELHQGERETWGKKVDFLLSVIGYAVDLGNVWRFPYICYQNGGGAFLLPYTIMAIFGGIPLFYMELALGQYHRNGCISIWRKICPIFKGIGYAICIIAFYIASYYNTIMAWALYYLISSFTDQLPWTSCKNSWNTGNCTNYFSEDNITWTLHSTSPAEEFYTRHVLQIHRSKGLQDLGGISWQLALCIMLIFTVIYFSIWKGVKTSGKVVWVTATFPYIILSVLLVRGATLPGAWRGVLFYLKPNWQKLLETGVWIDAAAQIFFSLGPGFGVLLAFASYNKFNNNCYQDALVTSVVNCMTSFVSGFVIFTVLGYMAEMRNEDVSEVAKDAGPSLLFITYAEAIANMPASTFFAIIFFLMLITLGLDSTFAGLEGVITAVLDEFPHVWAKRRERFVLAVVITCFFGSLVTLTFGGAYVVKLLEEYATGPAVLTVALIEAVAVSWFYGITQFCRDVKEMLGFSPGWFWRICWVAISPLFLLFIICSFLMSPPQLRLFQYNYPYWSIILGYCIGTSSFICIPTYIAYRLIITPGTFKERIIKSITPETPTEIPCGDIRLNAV

With `Cc1ccc2c3c(ccc2n1)OC[C@H](CNC1CCc2c([nH]c4ccccc24)C1)O3.Cl.Cl` (mixture of isomers) [Example 43, N-{[(2S)-8-methyl-2,3-dihydro[1,4]dioxino[2,3-f]quinolin-2-yl]methyl}-2,3,4,9-tetrahydro-1H-carbazol-2-amine dihydrochloride], the melting point (commonly the temperature of the solid-liquid transition) was 117 to 118 °C (dec.). The inhibition constant (Ki) (usually the equilibrium dissociation constant of an inhibitor or competing ligand from its target) at Human 5-HT1A Receptor [1] stood at 432 nM. Further, the Ki on serotonin transporter amounted to 45.1 nM. Also, the IC50 (usually the concentration that inhibits the measured activity by half) on h-5-HT-T came to 19.3 ± 2.51 nM. At Human 5-HT1A Receptor [2], the 50% effective concentration (EC50) – broadly, the concentration needed to bring the measured effect to its halfway point – came to 233 nM and the maximal response (Emax) – broadly, the greatest response seen or fitted, relative to the assay's reference – amounted to 61%. Besides, in series [3], the IC50 was 197 nM and the Imax (maximum inhibitory effect) worked out at 98.5%.
As to `Cc1ccc2c3c(ccc2n1)OC[C@H](CNCC[C@H]1CCc2[nH]c4ccc(F)cc4c2C1)O3` (single isomer, unassigned) [Example 42, dihydrochloride], the inhibitory constant (Ki) at Human 5-HT1A Receptor [1] turned out to be 751 nM; at serotonin transporter, 58 nM. Also, the IC50 was determined as 2.8 ± 0.12 nM against h-5-HT-T and 351 nM in series [3]. Further, the EC50 on Human 5-HT1A Receptor [2] was found to be 36.4 nM; in series [3] (superscript a, potency of stimulatory effect) it was 63 nM. The Emax was determined as 87% on Human 5-HT1A Receptor [2] and 39% in series [3] (superscript c, maximum stimulatory effect). Moreover, the Imax (maximum inhibitory effect) in series [3] was 71%.
In the case of `Cc1ccc2c3c(ccc2n1)OC[C@H](CN[C@H]1CCc2c([nH]c4ccccc24)C1)O3` (single isomer, unassigned) [Example 45, dihydrochloride], the figures for the inhibition constant Ki at Human 5-HT1A Receptor [1] and on serotonin transporter were 365 nM and 34.3 nM, respectively. Further, the IC50 came to 38.95 ± 0.18 nM on h-5-HT-T and 461 nM in series [3]. On Human 5-HT1A Receptor [2], the concentration giving a half-maximal response (EC50) worked out at 157 nM. The maximum response (Emax) at Human 5-HT1A Receptor [2] is 59%.
With `CCN(CC1CCc2[nH]c3ccc(F)cc3c2C1)C[C@H]1COc2ccc3nc(C)ccc3c2O1` (stereo partly drawn) [Example 50, N-[(6-Fluoro-2,3,4,9-tetrahydro-1H-carbazol-3-yl)methyl]-N-{[(2S)-8-methyl-2,3-dihydro[1,4]dioxino[2,3-f]quinolin-2-yl]methyl}ethanamine dihydrochloride dihydrate], the values for the Ki on Human 5-HT1A Receptor [1] and at serotonin transporter were 226 nM and 26.9 nM, respectively. In addition, the IC50 against h-5-HT-T stood at 5.73 ± 0.33 nM; at Human 5-HT1A Receptor [2] (superscript b, reversal of agonist activity, read-out: c-AMP, (IC50)^b), 137 nM; in series [3], 179 nM. In addition, the Imax (maximum inhibitory effect) in series [3] came to 100%.
Take `Cc1ccc2c3c(ccc2n1)OC[C@H](CN(CC1CC1)CC1CCc2[nH]c4ccc(F)cc4c2C1)O3` (stereo partly drawn) [Example 52, (Cyclopropylmethyl)[(6-fluoro-2,3,4,9-tetrahydro-1H-carbazol-3-yl)methyl]{[(2S)-8-methyl-2,3-dihydro[1,4]dioxino[2,3-f]quinolin-2-yl]methyl}amine dihydrochloride dihydrate]: the Ki on Human 5-HT1A Receptor [1] was determined as 936 nM. Further, on serotonin transporter, the inhibition constant (Ki) worked out at 670 nM. On h-5-HT-T, this compound showed a concentration for half-maximal inhibition (IC50) of 19.5 ± 0.28 nM. Besides, on Human 5-HT1A Receptor [2], the EC50 amounted to 312 nM and the Emax worked out at 70%. In series [3], the IC50 turned out to be 1580 nM and the Imax (maximum inhibitory effect) is 100%.
Consider `CCCN(C[C@@H]1CCc2[nH]c3ccc(F)cc3c2C1)C[C@H]1COc2ccc3nc(C)ccc3c2O1` [Example 54, N-{[(3R)-6-Fluoro-2,3,4,9-tetrahydro-1H-carbazol-3-yl]methyl}-N-{[(2S)-8-methyl-2,3-dihydro[1,4]dioxino[2,3-f]quinolin-2-yl]methyl}propan-1-amine dihydrochloride dihydrate], for which the Ki was found to be 617 nM at Human 5-HT1A Receptor [1] and 96.5 nM at serotonin transporter. The values for the concentration for half-maximal inhibition (IC50) (against h-5-HT-T; in series [3]) were 16.6 ± 0.85 nM and 581 nM, respectively. Also, the EC50 on Human 5-HT1A Receptor [2] came to 177 nM. Also, at Human 5-HT1A Receptor [2], the Emax was 48%. Moreover, the Imax (maximum inhibitory effect) in series [3] is 63%.
In the case of `Cc1ccc2c3c(ccc2n1)OC[C@H](CN(CC1CC1)C[C@@H]1CCc2[nH]c4ccc(F)cc4c2C1)O3` [Example 55, (Cyclopropylmethyl){[(3R)-6-fluoro-2,3,4,9-tetrahydro-1H-carbazol-3-yl]methyl}{[(2S)-8-methyl-2,3-dihydro[1,4]dioxino[2,3-f]quinolin-2-yl]methyl}amine dihydrochloride dihydrate], the inhibition constant Ki on Human 5-HT1A Receptor [1] turned out to be 850 nM. Further, the inhibition constant Ki at serotonin transporter stood at 110 nM. For the same compound, on h-5-HT-T, the 50% inhibitory concentration (IC50) is 8.5 ± 0.18 nM. Further, at Human 5-HT1A Receptor [2], the concentration giving a half-maximal response (EC50) stood at 211 nM and the maximal response (Emax) was found to be 67%. Further, in series [3], the IC50 came out at 1130 nM and the Imax (maximum inhibitory effect) was determined as 74%.
On to `Cc1ccc2c3c(ccc2n1)OC[C@H](CN(C[C@@H]1CCc2[nH]c4ccc(F)cc4c2C1)C1CCC1)O3` [Example 56, N-{[(3R)-6-Fluoro-2,3,4,9-tetrahydro-1H-carbazol-3-yl]methyl}-N-{[(2S)-8-methyl-2,3-dihydro[1,4]dioxino[2,3-f]quinolin-2-yl]methyl}cyclobutanamine dihydrochloride dihydrate], for which the Ki on Human 5-HT1A Receptor [1] came to 1730 nM; on serotonin transporter it was 127 nM. Moreover, the IC50 is 18.1 ± 0.39 nM at h-5-HT-T and 3100 nM in series [3]. Further, the EC50 at Human 5-HT1A Receptor [2] was 154 nM. Besides, the maximum response (Emax) on Human 5-HT1A Receptor [2] turned out to be 69%.
